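Values below derive from 48-hour exposures of cells grown in 96-well plates, with endpoints linearly interpolated between the two concentrations bracketing the appropriate inhibition level. TGI: concentration producing complete growth inhibition.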
What was measured:
Test in all cases: NCI tumour cell line growth inhibition, 48 h
K-562 leukemia = test system: K-562 leukemia
LOX IMVI melanoma = test system: LOX IMVI melanoma
MDA-MB-435 = test system: MDA-MB-435
NCI-H460 lung = test system: NCI-H460 lung
SK-MEL-28 melanoma = test system: SK-MEL-28 melanoma

## NNC(=Nc1ccccc1)SCc1ccccc1
K-562 leukemia
  TGI: > 100 µM
LOX IMVI melanoma
  TGI: > 100 µM
MDA-MB-435
  TGI: > 100 µM
NCI-H460 lung
  TGI: > 100 µM
SK-MEL-28 melanoma
  TGI: > 100 µM

## Nc1nc2cc(CNc3ccc(C(=O)O)cc3)ccc2nc1-c1ccccc1
K-562 leukemia
  TGI: > 100 µM
LOX IMVI melanoma
  TGI: > 100 µM
MDA-MB-435
  TGI: > 100 µM
NCI-H460 lung
  TGI: > 100 µM
SK-MEL-28 melanoma
  TGI: > 100 µM

## CC(C)=NNc1cnnc2ccc([N+](=O)[O-])cc12
MDA-MB-435
  TGI: > 100 µM
NCI-H460 lung
  TGI: > 100 µM

## O=C(Nc1ccccc1)c1cc(S(=O)(=O)Nc2n[nH]c(=O)[nH]2)c(SSc2cc(Cl)c(C(=O)Nc3ccccc3)cc2S(=O)(=O)Nc2n[nH]c(=O)[nH]2)cc1Cl
K-562 leukemia
  TGI: > 100 µM
LOX IMVI melanoma
  TGI: > 100 µM
MDA-MB-435
  TGI: > 100 µM
NCI-H460 lung
  TGI: > 100 µM
SK-MEL-28 melanoma
  TGI: > 100 µM

## CCOP(=O)(CC1CC(O)(CNc2cc(Cl)nc(N)n2)C1)OCC (stereo not drawn)
K-562 leukemia
  TGI: > 100 µM
LOX IMVI melanoma
  TGI: > 100 µM
MDA-MB-435
  TGI: > 100 µM
NCI-H460 lung
  TGI: > 100 µM
SK-MEL-28 melanoma
  TGI: > 100 µM

## CSc1nc2c(c(=O)n1C)N=C(c1ccc(Cl)cc1)CC(c1ccccc1)N2 (stereo not drawn)
K-562 leukemia
  TGI: 53.2 µM
LOX IMVI melanoma
  TGI: 54.3 µM
MDA-MB-435
  TGI: > 100 µM
SK-MEL-28 melanoma
  TGI: > 100 µM

## Cc1ccc2ccc(=O)oc2c1
K-562 leukemia
  TGI: > 100 µM
LOX IMVI melanoma
  TGI: > 100 µM
MDA-MB-435
  TGI: > 100 µM
NCI-H460 lung
  TGI: > 100 µM
SK-MEL-28 melanoma
  TGI: > 100 µM

## CC1=NC2(CCCCC2)N(Cl)C(=O)C1SC#N (stereo not drawn)
K-562 leukemia
  TGI: 41.4 µM
LOX IMVI melanoma
  TGI: 35.4 µM
MDA-MB-435
  TGI: 37.7 µM
SK-MEL-28 melanoma
  TGI: 34.9 µM

## COc1ccc(-c2cc(C3CC3)nc(SCC(=O)O)c2C#N)cc1
K-562 leukemia
  TGI: > 100 µM
LOX IMVI melanoma
  TGI: > 100 µM
MDA-MB-435
  TGI: > 100 µM
NCI-H460 lung
  TGI: > 100 µM
SK-MEL-28 melanoma
  TGI: > 100 µM

## CCCN=C1Nc2ccccc2[C@@H]2N(C)c3ccccc3C(C)C[C@]12C (stereo partly drawn)
K-562 leukemia
  TGI: > 100 µM
LOX IMVI melanoma
  TGI: 27.7 µM
MDA-MB-435
  TGI: 34 µM
NCI-H460 lung
  TGI: 55.4 µM
SK-MEL-28 melanoma
  TGI: 33.5 µM

## CN1c2ccccc2C(=O)NC12CCN(Cc1ccccc1)CC2
LOX IMVI melanoma
  TGI: > 100 µM
MDA-MB-435
  TGI: > 100 µM
NCI-H460 lung
  TGI: > 100 µM
SK-MEL-28 melanoma
  TGI: > 100 µM

## Fc1ccc(C2NC(=S)NC3=C2CCOc2c3ccc3ccccc23)cc1 (stereo not drawn)
K-562 leukemia
  TGI: > 100 µM
MDA-MB-435
  TGI: 43.4 µM
NCI-H460 lung
  TGI: > 100 µM

## COC(=O)c1c(C)ccc2c(O)c3c(cc12)C(=O)c1c2c(cc(O)c1C3=O)C1(C)OC(C)(O2)C(O)C(N(C)C)C1O (stereo not drawn)
MDA-MB-435
  TGI: 2.97 µM
SK-MEL-28 melanoma
  TGI: 11.8 µM

## COC(=O)C1=COC(C)C2C[n+]3ccc4c([nH]c5ccccc54)c3CC12 (stereo not drawn)
K-562 leukemia
  TGI: > 100 µM
LOX IMVI melanoma
  TGI: > 100 µM
MDA-MB-435
  TGI: > 100 µM
NCI-H460 lung
  TGI: > 100 µM
SK-MEL-28 melanoma
  TGI: > 100 µM

## CC1(C)C2CCC1(C)C(N/C(=C(/C(Cl)=C(Cl)Cl)[N+](=O)[O-])n1nnc3ccccc31)C2 (stereo not drawn)
LOX IMVI melanoma
  TGI: > 100 µM
MDA-MB-435
  TGI: 46.2 µM
NCI-H460 lung
  TGI: > 100 µM
SK-MEL-28 melanoma
  TGI: > 100 µM

## CCn1nc(-c2ccccc2)c2c1N(C)c1ccccc1-n1c(-c3ccccc3)nnc1-2
K-562 leukemia
  TGI: > 100 µM
LOX IMVI melanoma
  TGI: 33 µM
MDA-MB-435
  TGI: > 100 µM
NCI-H460 lung
  TGI: 29.2 µM
SK-MEL-28 melanoma
  TGI: 33.1 µM

## O=C(CCCC1Cc2ccccc2C1=O)c1ccccc1 (stereo not drawn)
K-562 leukemia
  TGI: > 100 µM
LOX IMVI melanoma
  TGI: > 100 µM
MDA-MB-435
  TGI: > 100 µM
NCI-H460 lung
  TGI: > 100 µM
SK-MEL-28 melanoma
  TGI: > 100 µM

## O=C1OC(C2Cc3ccccc3C2=O)c2ccccc21 (stereo not drawn)
K-562 leukemia
  TGI: > 100 µM
LOX IMVI melanoma
  TGI: > 100 µM
MDA-MB-435
  TGI: > 100 µM
NCI-H460 lung
  TGI: > 100 µM
SK-MEL-28 melanoma
  TGI: > 100 µM
